The values that follow come from patent US9856232B1, “Dihydropyrimidinone derivatives” (KING SAUD UNIVERSITY, priority 2017, dated 2018).

Data set [1] concerns Gastric lesions induced by 80% ethanol. In words: Gastric lesions induced by ethanol (ulcer index by severity scores). It counts as in vivo, Albino Wistar rats. To be noted: Rattus norvegicus, po, vs 80% EtOH group, read-out: Gastric lesions induced by 80% ethanol, % change; for inhibition in vivo at 12.5 mg/kg: compound 12.5 mg/kg; for inhibition in vivo at 25 mg/kg: compound 25 mg/kg; for inhibition in vivo at 50 mg/kg: compound 50 mg/kg. The procedure:
Albino Wistar rats of either sex, approximately the same age, weighing 150 to 200 g and fed on a diet of standard chow were used in this study. They were randomly divided into experimental groups of six rats each. Compounds (N-1 to N-18) 12.5, 25, and 50 mg/kg were given orally in the anti-ulcer studies and intraperitoneally for gastric secretion evaluation. The rats were sacrificed, and the stomachs removed and opened along the greater curvature, After washing with saline, the gastric lesions were quantified by a person unaware of the treatments. The animal study protocol was approved by the Research and Ethics Committee of the Experimental Animal Care Society, College of Pharmacy, King Saud University, Riyadh, Saudi Arabia.
Gastric lesions induced by ethanol: Albino rats of either sex weighing between (150-200 g) are divided into groups. The animals were fasted for 24 hours with free access to water. Animals were given test drugs or standard drug. One hour later 1 mL/200 gm of 80% ethanol is administered orally to each animal. The animals were anaesthetized 1 hour latter with anesthetic ether and stomach was incised along the greater curvature and ulceration was scored. The number of ulcers and the length of each ulcer were measured. Ulcer index was calculated using severity scores. The mucosal damage was examined by means of a magnifying glass. For each stomach the mucosal damage was assessed according to the following scoring system: 0.5 redness; 1.0 spot ulcers; 1.5 hemorrhagic streaks; 2.0 ulcers<3, but≦5; 3.0 ulcers>5. Table 1 provides the effect of compounds on gastric lesions induced by 80% ethanol (mean±SE).

Each structure is given as a SMILES string.

On to `O=C1NC=C(C(=O)c2ccc(N3CCCCC3)cc2)C(c2ccccc2)N1` (centres unmarked) [Compound N-1, 4-Phenyl-5-[4-(piperidin-1-yl)benzoyl]-3,4-dihydropyrimidin-2(1H)-one], for which the melting point (commonly the temperature of the solid-liquid transition) lay in the range of 220 to 222 °C.
The compound `O=C1NC=C(C(=O)c2ccc(N3CCCCC3)cc2)C(c2ccccc2[N+](=O)[O-])N1` (centres unmarked) [Compound N-2, 4-(2-Nitrophenyl)-5-[4-(piperidin-1-yl)benzoyl]-3,4-dihydropyrimidine-2(1H)-one] had a melting point of 190 to 192 °C. Also, in data set [1], the inhibition in vivo at 12.5 mg/kg came to 14.2%, the inhibition in vivo at 25 mg/kg was found to be 21.4% and the inhibition in vivo at 50 mg/kg was 28.5%.
Compound `O=C1NC=C(C(=O)c2ccc(N3CCCCC3)cc2)C(c2cccc([N+](=O)[O-])c2)N1` (centres unmarked) [Compound N-4, 4-(3-Nitrophenyl)-5-[4-(piperidin-1-yl)benzoyl]-3,4-dihydropyrimidin-2(1H)-one] yielded a melting point of 185 to 187 °C. Besides, the inhibition in vivo at 50 mg/kg in data set [1] was 7.4%.
In turn, `O=C1NC=C(C(=O)c2ccc(N3CCCCC3)cc2)C(c2ccc(Cl)cc2)N1` (centres unmarked) [Compound N-5, 4-(4-Chlorophenyl)-5-[4-(piperidin-1-yl)benzoyl]-3,4-dihydropyrimidin-2(1H)-one] registered a melting point of 230 to 232 °C. Further, in data set [1], the inhibition in vivo at 25 mg/kg came to 7.1% and the inhibition in vivo at 50 mg/kg is 10.7%.
The corresponding values for `O=C1NC=C(C(=O)c2ccc(N3CCCCC3)cc2)C(c2ccc(Cl)cc2Cl)N1` (centres unmarked) [Compound N-6, 4-(2,4-Dichlorophenyl)-5-[4-(piperidin-1-yl)benzoyl]-3,4-dihydropyrimidin-2(1H)-one] are 195 to 197 °C, 7.1% and 10.7%.
In the case of `COc1ccc(C2NC(=O)NC=C2C(=O)c2ccc(N3CCCCC3)cc2)cc1OC` (centres unmarked) [Compound N-7, 4-(3,4-Dimethoxyphenyl)-5-[4-(piperidin-1-yl)benzoyl]-3,4-dihydropyrimidin-2(1H)-one], the melting point lay in the range of 145 to 147 °C. Moreover, in data set [1], the inhibition in vivo at 12.5 mg/kg was determined as 10%, the inhibition in vivo at 25 mg/kg was 26.6% and the inhibition in vivo at 50 mg/kg was 33.3%.
`O=C1NC=C(C(=O)c2ccc(N3CCCCC3)cc2)C(c2ccc(O)cc2)N1` (centres unmarked) [Compound N-9, 4-(4-Hydroxyphenyl)-5-[4-(piperidin-1-yl)benzoyl]-3,4-dihydropyrimidin-2(1H)-one]: the melting point fell in the range of 210 to 212 °C. In data set [1], the inhibition in vivo at 25 mg/kg is 2%.
In the case of `O=C1NC=C(C(=O)c2ccc(N3CCCCC3)cc2)C(c2cccc(O)c2)N1` (centres unmarked) [Compound N-10, 4-(3-Hydroxyphenyl)-5-[4-(piperidin-1-yl)benzoyl]-3,4-dihydropyrimidin-2(1H)-one], the melting point lay within 190 to 192 °C. In addition, in data set [1], the inhibition in vivo at 12.5 mg/kg turned out to be 14%, the inhibition in vivo at 25 mg/kg is 17.8% and the inhibition in vivo at 50 mg/kg is 21.4%.
As to `COc1cccc(C2NC(=O)NC=C2C(=O)c2ccc(N3CCCCC3)cc2)c1` (centres unmarked) [Compound N-12, 4-(3-Methoxyphenyl)-5-[4-(piperidin-1-yl)benzoyl]-3,4-dihydropyrimidin-2(1H)-one], the melting point lay in the range of 160 to 162 °C. Also, in data set [1], the inhibition in vivo at 25 mg/kg was 7.1% and the inhibition in vivo at 50 mg/kg was found to be 10.7%.
Turning to `CCOc1ccc(C2NC(=O)NC=C2C(=O)c2ccc(N3CCCCC3)cc2)cc1` (centres unmarked) [Compound N-13, 4-(4-Ethoxyphenyl)-5-[4-(piperidin-1-yl)benzoyl]-3,4-dihydropyrimidin-2(1H)-one], the melting point lay within 200 to 202 °C. Also, in data set [1], the inhibition in vivo at 25 mg/kg was found to be 7.1% and the inhibition in vivo at 50 mg/kg worked out at 14.2%.
As for `COc1cc(OC)c(C2NC(=O)NC=C2C(=O)c2ccc(N3CCCCC3)cc2)cc1OC` (centres unmarked) [Compound N-14, 4-(2,4,5-Trimethoxyphenyl)-5-[4-(piperidin-1-yl)benzoyl]-3,4-dihydropyrimiden-2(1H)-one], the melting point fell in the range of 155 to 157 °C. For the same compound, in data set [1], the inhibition in vivo at 12.5 mg/kg worked out at 10.3%, the inhibition in vivo at 25 mg/kg came out at 27.5% and the inhibition in vivo at 50 mg/kg worked out at 37.9%.
The corresponding values for `COc1cc(C2NC(=O)NC=C2C(=O)c2ccc(N3CCCCC3)cc2)cc(OC)c1OC` (centres unmarked) [Compound N-16, 4-(3,4,5-Trimethoxyphenyl)-5-[4-(piperidin-1-yl)benzoyl]-3,4-dihydropyrimidin-2(1H)-one] are 135 to 137 °C, 7.1%, 17.8% and 21.4%.
With `COc1cc(OC)c(C2NC(=O)NC=C2C(=O)c2ccc(N3CCCCC3)cc2)c(OC)c1` (centres unmarked) [Compound N-17, 4-(2,4,6-Trimethoxyphenyl)-5-[4-(piperidin-1-yl)benzoyl]-3,4-dihydropyrimidin-2(1H)-one], the melting point fell in the range of 140 to 142 °C. Also, in data set [1], the inhibition in vivo at 25 mg/kg was determined as 27.5% and the inhibition in vivo at 50 mg/kg amounted to 37.9%.
As for `COc1ccc(C2NC(=O)NC=C2C(=O)c2ccc(N3CCCCC3)cc2)c(OC)c1` (centres unmarked) [Compound N-18, 4-(2,4-Dimethoxyphenyl)-5-[4-(piperidin-1-yl)benzoyl]-3,4-dihydropyrimiden-2(1H)-one], the melting point fell in the range of 135 to 137 °C. Moreover, in data set [1], the inhibition in vivo at 12.5 mg/kg is 6.4%, the inhibition in vivo at 25 mg/kg stood at 16.1% and the inhibition in vivo at 50 mg/kg came out at 22.5%.
